Data on 9 molecules can be found in PMC3277506, “Extra-Renal Elimination of Uric Acid via Intestinal Efflux Transporter BCRP/ABCG2” (PLoS ONE, 2012).

Like-named read-outs stand apart in the source and are kept apart here.

Data set [1] concerns Caco-2 cells. In words: Bidirectional transcellular transport of [14C]uric acid in Caco-2 cells. Format: in vitro ADME, human. The conditions noted are these: elacridar 2 µM, Ko143 1 µM, verapamil 100 µM, MK571 10 µM. How it is done: Caco-2 cells were obtained from the American Type Culture Collection (Rockville, MD). Caco-2 cells were cultured in Dulbecco's modified Eagle's medium (D-MEM) (Invitrogen, Carlsbad, CA) supplemented with 10% (v/v) fetal bovine serum (Invitrogen), 100 units/mL benzylpenicillin, 100 µg/mL streptomycin, 1% (v/v) MEM non-essential amino acid solution (Invitrogen) at 37°C under an atmosphere of 5% CO2 in air. For bidirectional transport studies, Caco-2 cells were cultured on Transwell filter membrane inserts (BD Falcon, surface area 0.9 cm^2 and pore size 3 µm) at a density of 6.4×10^4 cells/cm^2 for 21 days before use for each experiment. […] Inhibitor was added to only apical side. Transport of [^14C]uric acid was measured in two directions, namely apical (AP)-to-basal (BL) and BL-to-AP directions. An aliquot of transport buffer was obtained from the donor side at 5 min for measurement of initial concentration, and from the receiver side at 30, 60, 90 and 120 min. Transport studies were performed at 37°C and pH 7.4.
The apparent permeability (Papp, cm/sec) of [^14C]uric acid across the cell monolayer was calculated using the following equation: [drawing 4] where Q is the amount of [^14C]uric acid transported over time t. Cd is the initial concentration in the donor side and A is the surface area of membrane.

For data set [2], the target named is T1, rBcrp (Rattus norvegicus, UniProt Q80W57).
T1 sequence (Q80W57 1-657): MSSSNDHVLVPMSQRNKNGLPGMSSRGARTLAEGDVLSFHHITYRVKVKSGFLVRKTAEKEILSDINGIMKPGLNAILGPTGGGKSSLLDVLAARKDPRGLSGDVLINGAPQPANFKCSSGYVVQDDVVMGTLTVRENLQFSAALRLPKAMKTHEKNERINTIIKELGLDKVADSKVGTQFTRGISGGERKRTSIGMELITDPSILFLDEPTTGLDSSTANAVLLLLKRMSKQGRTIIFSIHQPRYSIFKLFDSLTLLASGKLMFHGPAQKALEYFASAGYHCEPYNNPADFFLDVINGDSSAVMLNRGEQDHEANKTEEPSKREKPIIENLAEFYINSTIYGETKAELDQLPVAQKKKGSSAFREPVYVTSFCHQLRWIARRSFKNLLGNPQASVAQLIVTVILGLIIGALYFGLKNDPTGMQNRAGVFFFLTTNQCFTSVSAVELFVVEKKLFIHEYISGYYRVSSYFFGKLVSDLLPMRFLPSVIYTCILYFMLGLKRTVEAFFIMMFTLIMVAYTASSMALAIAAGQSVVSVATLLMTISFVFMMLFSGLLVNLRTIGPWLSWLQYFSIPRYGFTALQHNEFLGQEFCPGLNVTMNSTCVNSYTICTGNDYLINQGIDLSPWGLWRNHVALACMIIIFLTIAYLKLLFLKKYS
In words: [14C]uric acid uptake by rBcrp-expressing membrane vesicles. Format: biochemical. Set-up: purchased GenoMembrane Inc. (Yokohama, Japan); host or cells: Sf9 cells. The conditions noted are these: [14C]uric acid uptake by vesicles, inhibitor concentrations only in Fig. 2C. How it is done:
hBCRP/rBcrp, hMRP2/rMrp2, or hMDR1-expressing membrane vesicles prepared from Sf9 cells were purchased from GenoMembrane Inc. (Yokohama, Japan). Uptake experiments were conducted as described previously. Briefly, after a pre-incubation for 5 min at 37°C, membrane vesicles (50 µg protein/50 µL final reaction volume) were incubated for 5 min at 37°C in the presence of 4 mM ATP or AMP in assay buffer (1 M KCl, 1 M MgCl2, and 100 mM MOPS-Tris, pH 7.0) containing [^14C]uric acid (1 µCi/mL). The uptake reaction was terminated by adding 1 mL ice-cold washing buffer (1 M KCl, and 100 mM MOPS-Tris, pH 7.0) to the membrane solution, and the mixture was rapidly filtered through a nitrocellulose filter (0.45 µm pore size, Millipore, Bedford, MA). The filters were washed twice with 5 mL ice-cold washing buffer. The filters were dried and dissolved in Clearsol-I for quantitation of radioactivity.

For data set [3] the following is noted: cited from earlier work.
In data set [4] the target is T1, rBcrp. In words: Effect of elacridar on intestinal secretion of uric acid, in situ intestinal closed loop method, oxonate-treated rats. The conditions noted are these: for Intestinal secretory clearance of uric acid, % of that in elacridar-untreated rats: 10 µM elacridar (Fig. 1A); for Intestinal secretory clearance of uric acid in the presence of elacridar: 10 µM elacridar, oxonate-treated rats. In kind it is in vivo. How it is done:
We evaluated intestinal secretion of endogenous uric acid according to the method described previously, with some modifications. Rats were anesthetized with 50% urethane and treated with oxonate by the same method as in the in vivo animal study described above. Intestinal closed loops were made at different segments: jejunum (10 cm), ileum (10 cm), and colon (3–5 cm). Phosphate-buffered solution (PB, 0.075 M NaH2PO4 - 0.075 M Na2HPO4, pH 6.5) or inhibitor-containing PB was injected into the intestinal loop. After 60 min, the remaining luminal content in each loop was washed out and collected for quantitation. Blood was obtained from the jugular vein at 1, 20, 40 and 60 min. Plasma was obtained by centrifugation and used for quantitation.
The following equation was used to calculate intestinal secretory clearance (µL/min/cm loop) and estimated total intestinal secretory clearance (CLintestine, estimated) (mL/min): [drawing 1] [drawing 2] [drawing 3] where A is the amount of uric acid secreted into the intestinal lumen of each loop for 60 min, L is the length of the intestine, and AUC is area under the plasma concentration-time curve.

Substrate in data set [5]: O=c1[nH]c(=O)c2[nH]c(=O)[nH]c2[nH]1
In words: [14C]uric acid uptake by rBcrp-expressing membrane vesicles. In kind it is biochemical, rat. The conditions noted are these: other: ATP-dependent uptake, maximum uric acid concentration 5 mM; pH 7.0; 37.0 °C.

With `CN(C)C(=O)CCSC(SCCC(=O)O)c1cccc(/C=C/c2ccc3ccc(Cl)cc3n2)c1` (centres unmarked) [MK571, reference compound], in data set [1], the “Effect on polarized transport of uric acid across Caco-2 cell monolayer” value (from here on “Effect on polarized transport”) is “significantly reduced”.
Turning to `CC(C(=O)O)c1cccc(C(=O)c2ccccc2)c1` (centres unmarked) [ketoprofen], in data set [2], the “Inhibition of rBcrp-mediated transport of uric acid” value (from here on “Inhibition”) is “not affected”.
Take `COc1ccc2c3c([nH]c2c1)[C@H](CC(C)C)N1C(=O)[C@H](CCC(=O)OC(C)(C)C)NC(=O)[C@@H]1C3` [Ko143, reference compound]: the “Effect on polarized transport” value in data set [1] is reported as “significantly reduced”. The “Inhibition” value in data set [2] was “strongly inhibited”.
On to `O=C(O)c1ccccc1O` [salicylic acid], for which the results for the “Effect on SUA level” value in data set [3] (high dose) and in data set [3] (low dose) were “decrease” and “increase”, respectively. For the same molecule, in data set [2], the “Inhibition” value was “not affected”.
Regarding `CO[C@H]1/C=C/O[C@@]2(C)Oc3c(C)c(O)c4c(O)c(c(/C=N/N5CCN(C)CC5)c(O)c4c3C2=O)NC(=O)/C(C)=C\C=C\[C@H](C)[C@H](O)[C@@H](C)[C@@H](O)[C@@H](C)[C@H](OC(C)=O)[C@@H]1C` [rifampicin], in data set [2], the “Inhibition” value is “moderately”.
As for `C[C@]12CC[C@@H]3c4ccc(OS(=O)(=O)O)cc4CC[C@H]3[C@@H]1CCC2=O` [estrone-3-sulfate], in data set [2], the “Inhibition” value is “strongly inhibited”.
Take `CCCCc1nc(Cl)c(CO)n1Cc1ccc(-c2ccccc2-c2nn[nH]n2)cc1` [losartan]: in data set [3] (drugs in clinical use), the “Effect on SUA level” value is “decrease”.
For the molecule `COc1cc2c(cc1OC)CN(CCc1ccc(NC(=O)c3cccc4c(=O)c5cccc(OC)c5[nH]c34)cc1)CC2` [elacridar], the entries for the “Intestinal secretory clearance of uric acid, % of that in elacridar-untreated rats” value in data set [4] (colon), in data set [4] (ileum) and in data set [4] (jejunum) were 30%, 52% and 55%, respectively. The “Intestinal secretory clearance of uric acid in the presence of elacridar” value in data set [4] (colon) is 0.23±0.04 µL/min/cm loop; in data set [4] (ileum) it was 0.82±0.12 µL/min/cm loop; in data set [4] (jejunum), 0.27±0.04 µL/min/cm loop. Besides, the “Ileal secretion of uric acid, % of the control” value in data set [4] (ileum, 0.1 µM elacridar (Fig. 3A)) is 53%. Moreover, the “Effect on polarized transport” value in data set [1] is “significantly reduced”. The “Inhibition” value in data set [2] is reported as “strongly inhibited”.

B1: rBcrp (Rattus norvegicus) (protein)
chain: T1 sequence (Q80W57 1-657)
notes: purchased GenoMembrane Inc. (Yokohama, Japan); host or cells: Sf9 cells
As for B1, the Km in data set [5] amounted to 12.5 ± 0.77 mM.

In general, Km refers to the substrate concentration at which the rate is half of its maximum.
